Tests used:
[1] = 50% rabbit plasma at 37° C.
Experimental: To determine the stability of the FHA II peptide, the unmodified or the acetylated-amidated peptide were incubated in 50% rabbit plasma at 37° C.

[2] = test system: human umbilical vein endothelial cells; test: Transendothelial migration of neutrophils; format: cell-based; details: peptides 0.01 mM
Experimental: Transendothelial migration of neutrophils was studied based on a method described by Muller et al. (1992), J. Exp. Med. 176: 819-828. Briefly, human neutrophils suspended in ice-cold Hanks balanced salt solution (HBSS) containing Ca^++ and Mg^++ (Sigma) were fluoresceinated by adding 3.3 μl/ml 5-(and 6-)carboxyfluorescein diacetate, succinimidyl ester (CFSE, Molecular Probes Inc., Oreg.). After incubation for 30 mins. on ice, neutrophils were washed twice in cold HBSS with Ca^++ and Mg^++ and resuspended in cold Medium 199 (M199, Sigma) to a final concentration of 10^6 /ml. Human umbilical vein endothelial cells were subcultured at confluence into 96-well tissue culture plates (Becton Dickinson Labware, Lincoln Park, N.J.) that were coated with hydrated collagen gel (Vitrogen; Collagen Corporation, Palo Alto, Calif.) and fibronectin. Endothelial cells were stimulated with 10 ng/ml TNF-alpha for 4 hours and washed three times with warm M199. Neutrophils (10^6 /ml) were preincubated with 0.01 mM of peptides or with 1 μM of native FHA in M199 for 5 mins. on ice before they were added in 100 μl aliquots to the endothelial cells. For positive control, neutrophils were pre-incubated with 25 μg/ml anti-CD18 mAb IB4. For negative control, neutrophils were treated with 25 μg/ml mAb W6/32 against HLA class I antigen (Dako, Carpinteria, Calif.). The cells were incubated for 1 hour at 37° C., 5% CO2. To terminate transmigration, the supernatant fluid was aspirated and the wells were filled with warm 1 mM EGTA (Sigma) in HBSS without Ca and Mg. The plates were covered with plate sealers (Dynatech, Alexandria, Va.) and centrifuged in an inverted position at 250 g for 3 mins. at room temperature. To remove residual non-transmigrated neutrophils from the endothelial cells, monolayers were washed twice with 200 μl of warm Hanks solution without Ca and Mg. Fluorescence was quantitated using a fluorescence counter (Millipore Cytofluor™ 2300). The percentage of transmigrated neutrophils was determined by comparing the amount of fluorescence of test wells with that measured in collagen- and fibronectin-coated wells without endothelial cells. […] Percent inhibition of transendothelial migration of neutrophils was calculated by comparing the number of transmigrated cells in wells containing neutrophils treated with peptide to neutrophils treated with M199 alone and arbitrarily set at 100% transendothelial migration (TEM).
The procedures for determining the neutrophil adherence to cultured endothelial cells and the transendothelial migration of neutrophils were identical with those of Example 9. Control values were the same as those shown in Example 9.

[3] = test system: THP-1 cells; test: Generation of Factor Xa by monocytes; format: cell-based; details: peptides 0.5 mM
Experimental: Factor Xa generation was determined by a modification of the method of Miletich et al. (1978), J. Biol. Chem. 253: 6908-6916. THP-1 cells (ATCC; 3×10^7 /ml) resuspended in RPMI 1640 (Bio Whittaker, Walkersville, Md.) were incubated with 100 μM ADP (Sigma), 2.5 mM CaCl2, 1 or 5 μg/ml Factor X (Hematologic Technologies Inc.) and 0.5 mM peptides at room temperature. After 20 minutes, 100 μl of the reaction mixture was transferred to 37° C. and supplemented with 100 μl of bovine factor VII- and Factor X-deficient plasma (Sigma). Coagulation was initiated by adding 100 μl of 25 mM CaCl2 and the clotting time was determined. Factor Xa procoagulant activity (ng/ml) was calculated by means of a standard curve constructed by serial concentrations of Factor Xa (Hematologic Technologies Inc.) from 50 to 250 ng/ml.

[4] = test system: Human neutrophils; test: Binding of 125I-Factor X to neutrophils
Experimental: Human Factor X (Sigma or Hematologic Technologies Inc.) was labeled with ^125 I using Iodogen (Pierce Chemical Co.) Human neutrophils were isolated from heparinized blood according to the manufacturer's specification using Neutrophil Isolation Medium (Cardinal Associates, Santa Fe, N.M.) and washed three times with 5 mM EDTA-phosphate-buffered saline (PBS), pH 7.2, at 4° C. To eliminate platelet contamination,neutrophils were incubated with autologous serum containing 5 mM EDTA for 30 mins. at 37° C., washed three times with ice-cold PBS, pH 7.2, and resuspended in RPMI 1640 tissue culture medium (Whittaker M. A. Bioproducts, Walkersville, Md.) at 4° C. Binding of ^125 I-Factor X to neutrophils was measured based on a method described by Altieri et al. (1991) Science 254: 1200-1202. Briefly, 200 μl of neutrophils (1.5×10^7 /ml) were supplemented with 17.5 μl of 50 mM CaCl2, stimulated with 3.5 μl of 100 μM NH2 -formyl-Met-Leu-Phe (Sigma), and mixed with 30 μl of 10.3 μg/ml ^125 I-Factor X and 100 μl of 1.75 mM of peptide. Buffer alone and a peptide of scrambled sequence served as controls in each of the 3 experiments. After incubation for 20 mins. at room temperature, neutrophil-bound ^125 I-Factor X was separated from unbound ^125 I-Factor X by centrifugation of 300 μl aliquots through 50 μl of a mixture of Hi phenyl silicone oil DC 550 and methyl silicone oil DC 200 5:1 (Nye Inc. Specialty Lubricants, New Bedford, Mass.) at 12,000×g for 2 mins. Aliquots of the supernatant (cell free ^125 I-Factor X) and the cell pellet (cell bound ^125 I-Factor X) were counted in a gamma-counter. Nonspecific binding (~50,000 cpm) was determined by adding a 100 fold excess of unlabeled Factor X, and subtracted from total radioactivity (~500,000 cpm for controls).

[5] = test system: Recognition of C3bi by 12.1F9; test: Peptide inhibition of recognition of C3bi by 12.1F9; format: binding

Substance | concentration over time in plasma [1] | % Inhibition of TEM ([2]; native FHA 1 μM, mAbs 25 μg/ml) [%] | % Inhibition of TEM ([2]; native FHA 1 μM, mAbs 25 μg/ml, listed as acetyl/amide modified FHA peptide II) [%] | Clotting time [3] [s] | Factor Xa ([3]; from standard curve) [ng/mL] | inhibition of 125I-Factor X binding to neutrophils ([4]; peptides 0.5 mM, native FHA 0.3 μM, mAb IB4 100 μg/ml) [%] | IC50 ([4]; read-out: IC50 of inhibition of 125I-Factor X binding) [nM] | block of binding of 12.1F9 to C3bi [5] | Adherence index ([5]; peptides 50 μg/ml, normalized to a control value of 100) | % Inhibition of TEM ([2]; FHA 1 μM, mAb IB4 25 μg/ml) [%] | % Inhibition of TEM ([2]; FHA 1 μM, mAb IB4 25 μg/ml, listed as Intact FHA) [%]
Ac-ETKEVDG-NH2 [Acetyl/Amide-FHA II] | remained unchanged over 48 hours | 61 ± 6 | 61±6 | 40.0 ± 3.0 | 28.5 | – | – | – | – | – | –
Filamentous hemagglutinin [native FHA] | – | 82±1 | – | – | – | 70±4 | 100 | blocked binding almost completely | 16 ± 16 | 82 ± 1 | 82±1
